Results: ChEMBL document CHEMBL6127087 (Eur J Med Chem, 2024)
Activity calls are given as the source filed them. No cut-off for these calls is given here.

What was measured:
[1] = Stability in simulated intestinal fluid assessed as half-life; type: physicochemical
[2] = biological target: T1, P2Y purinoceptor 6 (Homo sapiens, UniProt Q15077); assay: Binding affinity to P2Y6R (unknown origin) assessed as dissociation constant by SPR analysis
[3] = Cmax in male Sprague-Dawley rat at 10 mg/kg, iv measured after 24 hrs by LC-MS/MS analysis; type: ADME, organism-based; conditions: male, Sprague-Dawley, in vivo, read-out: Cmax
[4] = Stability in simulated gastric fluid assessed as half-life; type: physicochemical
[5] = system: Mus musculus; assay: (§1) Anti-inflammatory activity in LPS-induced male C57BL/6 mouse model of acute […] injury assessed as reduction in tissue destruction in lung at 2 to 6 mg/kg, IG preadministered with compound for 7 days followed by LPS administration and measured after 24 hrs by H and E staining based histopathological analysis; type: functional, organism-based; conditions: dose 2-6 mg/kg, time 8.0 day
[6] = biological target: P2Y purinoceptor 12 (Homo sapiens, UniProt Q9H244); assay: Antagonist activity at human P2Y12R stably expressed in HEK293 cells assessed as inhibition of MeSADP-induced cAMP accumulation preincubated with compound for 30 mins followed by MeSADP addition by cAMP-GloTM assay; type: functional, cell-based
[7] = biological target: Cytochrome P450 2C9 (Homo sapiens, UniProt P11712); assay: Inhibition of CYP2C9 in human liver microsomes using diclofenac as substrate preincubated for 10 mins followed by NADPH addition and measured after 10 mins by LC-MS/MS analysis; type: ADME, Microsome
[8] = biological target: T1, P2Y purinoceptor 6; assay: Antagonist activity at human P2Y6R expressed in CHO cells assessed as inhibition of UDP sodium salt-induced Ca2+ level by FLIPR calcium 6 assay; type: functional, cell-based
[9] = AUC (0 to 24 hrs) in male Sprague-Dawley rat at 10 mg/kg, iv measured after 24 hrs by LC-MS/MS analysis; type: ADME, organism-based; conditions: in vivo
[10] = system: Mus musculus; assay: as §1, with “alveolar septa thickening” for “tissue destruction”; type: functional, organism-based; conditions: dose 2-6 mg/kg, time 8.0 day
[11] = system: Mus musculus; assay: Anti-inflammatory activity in LPS-induced male C57BL/6 mouse model of acute […] injury assessed as inhibition of CXCL9 mRNA expression at 2 to 6 mg/kg, IG preadministered with compound for 7 days followed by LPS administration and measured after 24 hrs by RT-PCR analysis; type: functional, organism-based; conditions: dose 2-6 mg/kg, time 8.0 day
[12] = biological target: P2Y purinoceptor 1 (Homo sapiens) (UniProt P47900); assay: Antagonist activity at human P2Y1R stably expressed in HEK293 cells assessed as inhibition of ADP-induced IP3 accumulation preincubated with compound for 30 mins followed by ADP addition by ELISA; type: functional, cell-based
[13] = system: Mus musculus; assay: as §1, with “hyperemia of pulmonary alveolar septa” for “tissue destruction”; type: functional, organism-based; conditions: dose 2-6 mg/kg, time 8.0 day
[14] = system: Mus musculus; assay: as §1, with “intact appearance of alveolar structure” for “reduction in tissue destruction”; type: functional, organism-based; conditions: dose 2-6 mg/kg, time 8.0 day
[15] = system: Mus musculus; assay: as §1, with “inflammatory infiltration” for “tissue destruction”; type: functional, organism-based; conditions: dose 2-6 mg/kg, time 8.0 day
[16] = biological target: Cytochrome P450 2C19 (Homo sapiens, UniProt P33261); assay: Inhibition of CYP2C19 in human liver microsomes using s-mephenytoin as substrate preincubated for 10 mins followed by NADPH addition and measured after 10 mins by LC-MS/MS analysis; type: ADME, Microsome
[17] = biological target: Voltage-gated inwardly rectifying potassium channel KCNH2 (Homo sapiens, UniProt Q12809); assay: Inhibition of human ERG by PatchXpress analysis; type: toxicity
[18] = system: Mus musculus; assay: (§2) Anti-inflammatory activity in LPS-induced male C57BL/6 mouse model of acute […] injury assessed as reduction in infiltration of immune cells by measuring decrease in WBC count at 2 to 6 mg/kg, IG preadministered with compound for 7 days followed by LPS administration and measured after 24 hrs; type: functional, organism-based; conditions: dose 2-6 mg/kg, time 8.0 day
[19] = system: Mus musculus; assay: Anti-inflammatory activity in LPS-induced male C57BL/6 mouse model of acute […] injury assessed as inhibition of CXCL10 mRNA expression at 2 to 6 mg/kg, IG preadministered with compound for 7 days followed by LPS administration and measured after 24 hrs by RT-PCR analysis; type: functional, organism-based; conditions: dose 2-6 mg/kg, time 8.0 day
[20] = system: Mus musculus; assay: Anti-inflammatory activity in LPS-induced male C57BL/6 mouse model of acute […] injury assessed as inhibition of CCL2 release at 2 to 6 mg/kg, IG preadministered with compound for 7 days followed by LPS administration and measured after 24 hrs by ELISA; type: functional, organism-based; conditions: dose 2-6 mg/kg, time 8.0 day
[21] = system: Mus musculus; assay: (§3) Anti-inflammatory activity in LPS-induced male C57BL/6 mouse model of acute […] injury assessed as reduction in infiltration of neutrophils into lung at 2 to 6 mg/kg, IG preadministered with compound for 7 days followed by LPS administration and measured after 24 hrs by immunofluorescence analysis; type: functional, organism-based; conditions: dose 2-6 mg/kg, time 8.0 day
[22] = system: Mus musculus; assay: as §3, with “in” for “in infiltration of neutrophils into”, “lung permeability by measuring tight junction associated proteins” for “lung”; type: functional, organism-based; conditions: dose 2-6 mg/kg, time 8.0 day
[23] = system: Mus musculus; assay: Anti-inflammatory activity in LPS-induced male C57BL/6 mouse model of acute […] injury assessed as reduction in IL-1beta level in BALF at 2 to 6 mg/kg, IG preadministered with compound for 7 days followed by LPS administration and measured after 24 hrs by ELISA; type: functional, organism-based; conditions: dose 2-6 mg/kg, time 8.0 day
[24] = system: Mus musculus; assay: Anti-inflammatory activity in LPS-induced male C57BL/6 mouse model of acute […] injury assessed as inhibition of CXCL1 release at 2 to 6 mg/kg, IG preadministered with compound for 7 days followed by LPS administration and measured after 24 hrs by ELISA; type: functional, organism-based; conditions: dose 2-6 mg/kg, time 8.0 day
[25] = system: HUVEC; assay: Cytotoxicity against HUVEC cells assessed as reduction in cell survival at >10 uM incubated for 12 to 24 hrs by CCK8 assay; type: toxicity, cell-based; conditions: human, time 12-24 hrs
[26] = AUC (0 to 24 hrs) in male Sprague-Dawley rat at 20 mg/kg, po measured after 24 hrs by LC-MS/MS analysis; type: ADME, organism-based; conditions: male, Sprague-Dawley, in vivo
[27] = system: Mus musculus; assay: as §2, with “neutrophil” for “WBC”; type: functional, organism-based; conditions: dose 2-6 mg/kg, time 8.0 day
[28] = system: Mus musculus; assay: Anti-inflammatory activity in LPS-induced male C57BL/6 mouse model of acute […] injury assessed as inhibition of CCL2 mRNA expression at 2 to 6 mg/kg, IG preadministered with compound for 7 days followed by LPS administration and measured after 24 hrs by RT-PCR analysis; type: functional, organism-based; conditions: dose 2-6 mg/kg, time 8.0 day
[29] = Oral bioavailability in male Sprague-Dawley rat at 20 mg/kg measured after 24 hrs by LC-MS/MS analysis; type: ADME, organism-based; conditions: male, Sprague-Dawley, in vivo
[30] = biological target: Cytochrome P450 2D6 (Homo sapiens, UniProt P10635); assay: Inhibition of CYP2D6 in human liver microsomes using […] as substrate preincubated for 10 mins followed by NADPH addition and measured after 10 mins by LC-MS/MS analysis; type: ADME, Microsome
[31] = Half-life in male Sprague-Dawley rat at 10 mg/kg, iv measured after 24 hrs by LC-MS/MS analysis; type: ADME, organism-based; conditions: male, Sprague-Dawley, in vivo

T1 sequence (Q15077 whole entry): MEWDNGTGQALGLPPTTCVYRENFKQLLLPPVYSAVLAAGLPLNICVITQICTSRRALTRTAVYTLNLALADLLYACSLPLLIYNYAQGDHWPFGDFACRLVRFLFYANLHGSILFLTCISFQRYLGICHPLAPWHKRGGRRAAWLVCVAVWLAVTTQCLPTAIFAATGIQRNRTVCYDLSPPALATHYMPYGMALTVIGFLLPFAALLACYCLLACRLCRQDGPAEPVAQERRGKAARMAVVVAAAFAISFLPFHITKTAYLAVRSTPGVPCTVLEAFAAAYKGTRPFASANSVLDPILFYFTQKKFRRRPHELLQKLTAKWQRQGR
P2Y purinoceptor 1 (Homo sapiens), sequence (P47900 whole entry): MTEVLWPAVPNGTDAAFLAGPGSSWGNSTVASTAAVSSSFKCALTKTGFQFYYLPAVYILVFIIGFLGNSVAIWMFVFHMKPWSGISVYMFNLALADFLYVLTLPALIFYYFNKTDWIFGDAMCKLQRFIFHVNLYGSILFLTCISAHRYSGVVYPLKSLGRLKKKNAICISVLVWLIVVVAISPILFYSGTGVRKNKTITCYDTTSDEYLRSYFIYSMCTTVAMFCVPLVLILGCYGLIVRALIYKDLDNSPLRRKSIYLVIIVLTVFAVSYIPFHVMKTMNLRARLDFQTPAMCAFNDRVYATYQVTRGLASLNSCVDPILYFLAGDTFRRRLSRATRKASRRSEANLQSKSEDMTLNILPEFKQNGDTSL
Cytochrome P450 2C19, sequence (P33261 whole entry): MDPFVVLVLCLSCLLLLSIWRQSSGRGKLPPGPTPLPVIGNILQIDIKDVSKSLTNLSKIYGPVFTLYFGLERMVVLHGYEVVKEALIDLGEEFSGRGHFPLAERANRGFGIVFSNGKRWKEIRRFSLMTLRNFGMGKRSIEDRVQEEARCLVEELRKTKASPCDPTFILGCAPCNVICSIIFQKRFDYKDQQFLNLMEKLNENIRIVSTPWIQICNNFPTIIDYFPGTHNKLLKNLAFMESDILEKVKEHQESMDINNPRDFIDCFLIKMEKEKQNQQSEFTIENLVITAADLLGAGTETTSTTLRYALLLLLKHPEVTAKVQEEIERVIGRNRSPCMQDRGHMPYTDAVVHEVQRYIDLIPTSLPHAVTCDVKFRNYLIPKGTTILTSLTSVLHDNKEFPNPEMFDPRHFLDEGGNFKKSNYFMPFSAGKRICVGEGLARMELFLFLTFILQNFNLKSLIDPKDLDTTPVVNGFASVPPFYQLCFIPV
Cytochrome P450 2D6, sequence (P10635 whole entry): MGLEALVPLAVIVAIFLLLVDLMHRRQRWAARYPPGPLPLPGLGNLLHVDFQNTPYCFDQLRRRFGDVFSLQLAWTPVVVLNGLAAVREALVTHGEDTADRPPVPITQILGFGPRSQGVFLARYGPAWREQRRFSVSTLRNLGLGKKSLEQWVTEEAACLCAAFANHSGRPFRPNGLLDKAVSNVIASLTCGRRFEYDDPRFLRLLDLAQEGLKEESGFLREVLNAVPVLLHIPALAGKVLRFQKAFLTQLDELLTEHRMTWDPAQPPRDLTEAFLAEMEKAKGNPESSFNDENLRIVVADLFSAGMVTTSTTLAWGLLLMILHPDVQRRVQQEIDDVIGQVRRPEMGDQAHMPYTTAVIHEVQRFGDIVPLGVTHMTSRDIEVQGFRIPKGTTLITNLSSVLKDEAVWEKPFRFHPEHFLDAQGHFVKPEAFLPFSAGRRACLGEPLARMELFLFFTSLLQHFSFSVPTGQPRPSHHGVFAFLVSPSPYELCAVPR
Voltage-gated inwardly rectifying potassium channel KCNH2, sequence (Q12809 whole entry): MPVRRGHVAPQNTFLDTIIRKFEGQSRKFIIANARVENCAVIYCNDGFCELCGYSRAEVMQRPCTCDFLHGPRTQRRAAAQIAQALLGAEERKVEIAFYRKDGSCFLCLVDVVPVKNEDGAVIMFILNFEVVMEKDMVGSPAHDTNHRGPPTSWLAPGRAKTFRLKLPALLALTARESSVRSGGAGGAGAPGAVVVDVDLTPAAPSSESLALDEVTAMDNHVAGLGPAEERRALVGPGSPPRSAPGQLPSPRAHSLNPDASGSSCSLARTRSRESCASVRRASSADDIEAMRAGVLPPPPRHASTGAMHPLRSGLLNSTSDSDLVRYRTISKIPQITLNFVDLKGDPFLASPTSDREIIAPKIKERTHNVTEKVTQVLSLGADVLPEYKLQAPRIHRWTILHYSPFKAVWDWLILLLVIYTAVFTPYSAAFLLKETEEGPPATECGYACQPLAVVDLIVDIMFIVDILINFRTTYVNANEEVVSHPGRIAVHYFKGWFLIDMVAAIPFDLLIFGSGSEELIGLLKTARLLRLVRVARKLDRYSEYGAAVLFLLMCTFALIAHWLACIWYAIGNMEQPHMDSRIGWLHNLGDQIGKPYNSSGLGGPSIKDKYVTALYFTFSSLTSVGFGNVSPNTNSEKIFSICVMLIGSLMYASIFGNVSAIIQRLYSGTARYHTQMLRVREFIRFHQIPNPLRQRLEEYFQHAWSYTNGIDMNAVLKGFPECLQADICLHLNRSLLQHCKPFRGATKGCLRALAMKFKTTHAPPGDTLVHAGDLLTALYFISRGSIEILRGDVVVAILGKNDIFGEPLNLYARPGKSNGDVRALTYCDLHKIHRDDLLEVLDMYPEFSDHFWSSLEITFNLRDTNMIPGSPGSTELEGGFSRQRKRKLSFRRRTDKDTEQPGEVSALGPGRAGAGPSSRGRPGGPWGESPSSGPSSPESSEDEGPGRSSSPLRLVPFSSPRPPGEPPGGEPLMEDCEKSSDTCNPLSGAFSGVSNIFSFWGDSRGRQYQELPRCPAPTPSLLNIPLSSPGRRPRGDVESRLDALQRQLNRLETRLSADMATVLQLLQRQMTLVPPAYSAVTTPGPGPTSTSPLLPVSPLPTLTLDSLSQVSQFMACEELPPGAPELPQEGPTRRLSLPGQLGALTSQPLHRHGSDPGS
Cytochrome P450 2C9, sequence (P11712 whole entry): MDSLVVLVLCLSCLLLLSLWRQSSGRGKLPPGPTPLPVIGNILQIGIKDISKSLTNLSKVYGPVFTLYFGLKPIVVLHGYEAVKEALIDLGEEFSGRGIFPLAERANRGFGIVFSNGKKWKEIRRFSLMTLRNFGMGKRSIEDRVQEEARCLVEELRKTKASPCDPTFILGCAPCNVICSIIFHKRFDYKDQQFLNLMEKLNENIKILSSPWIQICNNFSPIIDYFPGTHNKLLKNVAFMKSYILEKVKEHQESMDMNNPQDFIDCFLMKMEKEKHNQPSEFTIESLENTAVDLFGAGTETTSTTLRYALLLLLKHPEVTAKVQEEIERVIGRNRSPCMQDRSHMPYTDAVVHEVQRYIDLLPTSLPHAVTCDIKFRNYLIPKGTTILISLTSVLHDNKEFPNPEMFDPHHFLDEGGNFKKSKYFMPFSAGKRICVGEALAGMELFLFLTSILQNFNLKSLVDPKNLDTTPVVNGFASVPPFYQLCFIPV
P2Y purinoceptor 12, sequence (Q9H244 whole entry): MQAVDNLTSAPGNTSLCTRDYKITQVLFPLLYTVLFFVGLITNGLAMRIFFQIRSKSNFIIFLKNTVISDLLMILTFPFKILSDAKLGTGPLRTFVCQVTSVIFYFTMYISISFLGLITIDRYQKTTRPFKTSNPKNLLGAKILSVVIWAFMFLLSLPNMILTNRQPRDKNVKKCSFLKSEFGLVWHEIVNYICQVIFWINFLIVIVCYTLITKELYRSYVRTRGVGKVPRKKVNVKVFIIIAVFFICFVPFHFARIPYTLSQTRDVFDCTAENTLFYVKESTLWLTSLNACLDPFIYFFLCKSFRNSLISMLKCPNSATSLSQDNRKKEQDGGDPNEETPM

half-life [1]: > 5 h
Kd [2]: 1.4 µM
Cmax [3]: 1410 ng/mL
half-life [4]: > 50 h
Activity [6]: inactive
IC50 [7]: 23.6 µM
IC50 [8]: 0.0196 µM
AUC [9]: 1956 ng·h/mL
Activity [12]: inactive
IC50 [16]: > 50 µM
AUC(0-t) at 24 h [26]: 2980 ng·h/mL
bioavailability [29]: 43%
IC50 [30]: > 50 µM
half-life [31]: 1.5 h
SMILES: O=C(O)CCC(=O)N1N=C(c2ccc[nH]2)CC1c1cnc2ccccc2c1 (stereo unspecified)
Activity [5]: Active
Activity [10]: Active
Activity [11]: Active
Activity [13]: Active
Activity [14]: Active
Activity [15]: Active
IC50 [17]: > 50 µM
Activity [18]: Active
Activity [19]: Active
Activity [20]: Active
Activity [21]: Active
Activity [22]: Active
Activity [23]: Active
Activity [24]: Active
Activity [25]: Non-Toxic
Activity [27]: Active
Activity [28]: Active
